# Experimental data: ChEMBL document CHEMBL1201862, “PubChem BioAssay data set” (2004)
# Calls of active or inactive are those of the source.
# System: not listed separately
# Assay: StAR promoter reporter inhibition counter-screen, dose response, counter-screen for LRH-1 inverse agonist project, cell-based, luminescence, luciferase reporter (AID 651969)
# Format: functional
# Conditions: not given
row,SMILES,IC50
1,COc1ccc(C2(C)NC(=O)N(CC(=O)Nc3ccc(C)cc3Br)C2=O)cc1OC (centres undefined),35.9 µM (inactive)
2,COCCn1c(C)cc(/C=C(\C#N)C(=O)OCC(=O)Nc2ccc(S(N)(=O)=O)cc2)c1C,35.9 µM (inactive)
3,COc1ccc(S(=O)(=O)N2CCN(CC(=O)Nc3ccc(C)c(F)c3)CC2)cc1,35.9 µM (inactive)
4,COC(=O)c1ccc(NC(=O)CSc2nncn2-c2cccnc2)cc1,35.9 µM (inactive)
5,CCOc1ccc(NC(=O)CSc2nnc(C(C)C)n2CC)cc1,35.9 µM (inactive)
6,CC(O)(c1cccc(F)c1)c1nc(-c2ccc(S(C)(=O)=O)cc2)cs1 (centres undefined),35.9 µM (inactive)
7,N#Cc1cc([N+](=O)[O-])ccc1NC(=O)COC(=O)C1CCC(=O)N1 (centres undefined),35.9 µM (inactive)

# Molecular target: Steroidogenic factor 1 (Homo sapiens, UniProt Q13285)
# Sequence (Q13285 whole entry): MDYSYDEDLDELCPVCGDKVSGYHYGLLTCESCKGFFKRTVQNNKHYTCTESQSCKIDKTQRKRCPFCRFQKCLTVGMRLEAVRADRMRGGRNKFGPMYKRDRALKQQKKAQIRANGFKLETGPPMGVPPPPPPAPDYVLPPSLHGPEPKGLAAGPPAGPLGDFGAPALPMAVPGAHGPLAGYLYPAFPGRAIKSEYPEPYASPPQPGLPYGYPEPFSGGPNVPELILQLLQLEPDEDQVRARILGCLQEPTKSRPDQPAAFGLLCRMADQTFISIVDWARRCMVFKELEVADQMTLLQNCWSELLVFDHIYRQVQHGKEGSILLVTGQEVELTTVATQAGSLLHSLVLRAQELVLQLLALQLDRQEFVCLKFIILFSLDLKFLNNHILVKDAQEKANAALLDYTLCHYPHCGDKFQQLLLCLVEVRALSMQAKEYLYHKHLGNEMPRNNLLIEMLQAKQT
# Assay: Counterscreen for inverse agonists of the liver receptor homolog-1 (LRH-1; NR5A2): Luminescence-based cell-based high throughput dose response assay to identify inverse agonists of the Steroidogenic Factor 1 Nuclear Receptor (SF1; NR5A1).
# Format: functional
# Conditions: not given
row,SMILES,IC50
1,COc1ccc(C2(C)NC(=O)N(CC(=O)Nc3ccc(C)cc3Br)C2=O)cc1OC (centres undefined),11.7 µM (inactive)
2,COCCn1c(C)cc(/C=C(\C#N)C(=O)OCC(=O)Nc2ccc(S(N)(=O)=O)cc2)c1C,3.99 µM (active)
3,COc1ccc(S(=O)(=O)N2CCN(CC(=O)Nc3ccc(C)c(F)c3)CC2)cc1,3.05 µM (active)
4,COC(=O)c1ccc(NC(=O)CSc2nncn2-c2cccnc2)cc1,14 µM (inactive)
5,CCOc1ccc(NC(=O)CSc2nnc(C(C)C)n2CC)cc1,6.03 µM (active)
6,CC(O)(c1cccc(F)c1)c1nc(-c2ccc(S(C)(=O)=O)cc2)cs1 (centres undefined),3.64 µM (active)
7,N#Cc1cc([N+](=O)[O-])ccc1NC(=O)COC(=O)C1CCC(=O)N1 (centres undefined),4.87 µM (active)

# Molecular target: Cytochrome P450 3A4 (Homo sapiens, UniProt P08684);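 also: CYP3A4 tested as one member of a cytochrome P450 panel screen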
# Sequence (P08684 whole entry): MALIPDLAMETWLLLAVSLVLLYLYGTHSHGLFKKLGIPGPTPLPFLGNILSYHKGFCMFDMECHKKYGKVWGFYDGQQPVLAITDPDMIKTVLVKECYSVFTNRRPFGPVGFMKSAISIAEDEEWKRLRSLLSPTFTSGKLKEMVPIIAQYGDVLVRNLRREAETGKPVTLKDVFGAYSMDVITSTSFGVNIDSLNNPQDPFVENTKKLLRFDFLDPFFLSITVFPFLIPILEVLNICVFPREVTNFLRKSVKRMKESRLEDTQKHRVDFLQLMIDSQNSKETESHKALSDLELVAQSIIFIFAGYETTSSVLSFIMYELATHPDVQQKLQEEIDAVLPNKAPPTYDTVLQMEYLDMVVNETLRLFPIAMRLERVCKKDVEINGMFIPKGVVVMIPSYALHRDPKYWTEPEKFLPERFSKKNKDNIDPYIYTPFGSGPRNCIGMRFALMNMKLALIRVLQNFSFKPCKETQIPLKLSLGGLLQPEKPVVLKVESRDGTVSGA
# Conditions: not given
row,SMILES,AC50
1,CCOC(=O)C1=C(C)N=C2SC(C(=O)OC)=CC(=O)N2C1c1ccc(F)cc1 (centres undefined),inconclusive
2,O=C(c1cccc(F)c1)N1CCC2(CC1)CN(c1cccc(-c3ccccc3)c1)C2,inconclusive
3,Cn1c(=O)c(-c2ccccc2)nc2cnc(N3CCOCC3)nc21,inconclusive

# Molecular target: Cytochrome P450 2C9 (Homo sapiens, UniProt P11712)
# Sequence (P11712 whole entry): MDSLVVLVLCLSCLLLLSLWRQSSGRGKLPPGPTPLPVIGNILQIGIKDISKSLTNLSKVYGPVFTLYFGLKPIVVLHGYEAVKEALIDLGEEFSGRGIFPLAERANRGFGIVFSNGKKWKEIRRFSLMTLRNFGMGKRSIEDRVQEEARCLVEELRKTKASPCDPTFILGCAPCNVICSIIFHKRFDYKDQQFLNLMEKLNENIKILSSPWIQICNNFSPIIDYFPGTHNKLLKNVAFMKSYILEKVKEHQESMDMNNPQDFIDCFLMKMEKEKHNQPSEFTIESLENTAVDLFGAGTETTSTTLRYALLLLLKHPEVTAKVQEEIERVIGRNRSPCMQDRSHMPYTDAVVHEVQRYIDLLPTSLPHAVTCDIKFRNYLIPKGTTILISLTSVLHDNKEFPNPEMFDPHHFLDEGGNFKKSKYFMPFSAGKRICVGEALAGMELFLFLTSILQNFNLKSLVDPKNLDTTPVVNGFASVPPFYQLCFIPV
# Conditions: not given
row,SMILES,AC50
1,Cn1c(=O)c(-c2ccccc2)nc2cnc(N3CCOCC3)nc21,39.8 µM (inconclusive)

# Molecular target: T1, Cytochrome P450 1A2 (Homo sapiens, UniProt P05177);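 also: PubChem cytochrome P450 panel assay, CYP1A2 panel member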
# T1 sequence (P05177 whole entry): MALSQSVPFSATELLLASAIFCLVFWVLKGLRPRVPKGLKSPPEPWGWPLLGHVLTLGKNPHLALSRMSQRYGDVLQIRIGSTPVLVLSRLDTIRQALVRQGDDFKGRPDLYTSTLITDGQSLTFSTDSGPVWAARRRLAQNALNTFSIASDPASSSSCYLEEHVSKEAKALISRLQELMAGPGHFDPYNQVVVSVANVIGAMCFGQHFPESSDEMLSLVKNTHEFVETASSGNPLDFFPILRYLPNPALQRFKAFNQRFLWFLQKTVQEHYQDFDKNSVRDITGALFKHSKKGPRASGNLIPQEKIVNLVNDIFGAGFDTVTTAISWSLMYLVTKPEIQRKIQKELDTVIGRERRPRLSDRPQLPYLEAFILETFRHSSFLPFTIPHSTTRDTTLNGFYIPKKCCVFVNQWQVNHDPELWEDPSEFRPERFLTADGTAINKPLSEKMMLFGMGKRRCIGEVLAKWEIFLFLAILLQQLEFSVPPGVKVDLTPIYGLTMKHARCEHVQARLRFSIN
# Conditions: not given
row,SMILES,AC50
1,CCOC(=O)C1=C(C)N=C2SC(C(=O)OC)=CC(=O)N2C1c1ccc(F)cc1 (centres undefined),31.6 µM (inconclusive)
2,O=C(c1cccc(F)c1)N1CCC2(CC1)CN(c1cccc(-c3ccccc3)c1)C2,12.6 µM (inconclusive)

# Molecular target: Cytochrome P450 2D6 (Homo sapiens, UniProt P10635);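 also: CYP2D6 member of a cytochrome P450 panel assay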
# Sequence (P10635 whole entry): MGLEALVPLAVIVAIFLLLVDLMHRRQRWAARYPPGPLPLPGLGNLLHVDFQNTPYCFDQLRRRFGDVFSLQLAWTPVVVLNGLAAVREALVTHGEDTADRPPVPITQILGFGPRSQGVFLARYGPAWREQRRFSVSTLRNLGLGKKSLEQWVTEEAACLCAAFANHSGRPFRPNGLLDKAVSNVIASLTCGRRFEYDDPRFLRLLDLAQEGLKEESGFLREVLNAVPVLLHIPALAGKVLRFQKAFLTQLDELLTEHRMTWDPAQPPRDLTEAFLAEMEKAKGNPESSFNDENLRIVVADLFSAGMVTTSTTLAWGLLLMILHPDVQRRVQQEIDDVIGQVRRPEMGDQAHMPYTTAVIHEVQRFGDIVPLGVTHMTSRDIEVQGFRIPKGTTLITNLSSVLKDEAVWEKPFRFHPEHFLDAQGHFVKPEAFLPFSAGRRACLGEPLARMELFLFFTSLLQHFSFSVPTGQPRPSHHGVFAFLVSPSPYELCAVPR
# Conditions: not given
row,SMILES,AC50
1,CCOC(=O)C1=C(C)N=C2SC(C(=O)OC)=CC(=O)N2C1c1ccc(F)cc1 (centres undefined),12.6 µM (inconclusive)

# Molecular target: Cytochrome P450 2C19 (Homo sapiens, UniProt P33261)
# Sequence (P33261 whole entry): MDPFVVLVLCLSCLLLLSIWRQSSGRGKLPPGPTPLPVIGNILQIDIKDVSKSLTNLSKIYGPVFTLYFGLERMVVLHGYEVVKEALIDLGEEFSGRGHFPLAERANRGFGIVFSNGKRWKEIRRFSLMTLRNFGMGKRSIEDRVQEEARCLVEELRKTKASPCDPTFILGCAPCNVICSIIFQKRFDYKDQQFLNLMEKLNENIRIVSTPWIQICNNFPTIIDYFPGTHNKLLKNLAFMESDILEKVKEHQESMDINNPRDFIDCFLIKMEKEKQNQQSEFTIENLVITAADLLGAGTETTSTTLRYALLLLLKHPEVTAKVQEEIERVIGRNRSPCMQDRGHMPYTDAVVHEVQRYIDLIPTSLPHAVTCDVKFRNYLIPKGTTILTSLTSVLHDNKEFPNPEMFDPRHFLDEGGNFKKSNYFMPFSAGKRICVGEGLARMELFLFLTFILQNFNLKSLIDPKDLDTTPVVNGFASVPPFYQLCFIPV
# Assay: Cytochrome panel assay with activity outcomes. Panel member name: p450-cyp2c19 Compounds with AC50 equal or less than 10 uM are considered active
# Format: functional
# Conditions: read-out: AC50
row,SMILES,AC50
1,Cn1c(=O)c(-c2ccccc2)nc2cnc(N3CCOCC3)nc21,39.8 µM (inconclusive)

# Molecular target: Nuclear receptor subfamily 5 group A member 2 (Homo sapiens, UniProt O00482);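 also: HEK293T cells transfected with LRH-1 and a StAR promoter luciferase reporter; potency for inhibitors that lower LRH-1 driven reporter light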
# Sequence (O00482 whole entry): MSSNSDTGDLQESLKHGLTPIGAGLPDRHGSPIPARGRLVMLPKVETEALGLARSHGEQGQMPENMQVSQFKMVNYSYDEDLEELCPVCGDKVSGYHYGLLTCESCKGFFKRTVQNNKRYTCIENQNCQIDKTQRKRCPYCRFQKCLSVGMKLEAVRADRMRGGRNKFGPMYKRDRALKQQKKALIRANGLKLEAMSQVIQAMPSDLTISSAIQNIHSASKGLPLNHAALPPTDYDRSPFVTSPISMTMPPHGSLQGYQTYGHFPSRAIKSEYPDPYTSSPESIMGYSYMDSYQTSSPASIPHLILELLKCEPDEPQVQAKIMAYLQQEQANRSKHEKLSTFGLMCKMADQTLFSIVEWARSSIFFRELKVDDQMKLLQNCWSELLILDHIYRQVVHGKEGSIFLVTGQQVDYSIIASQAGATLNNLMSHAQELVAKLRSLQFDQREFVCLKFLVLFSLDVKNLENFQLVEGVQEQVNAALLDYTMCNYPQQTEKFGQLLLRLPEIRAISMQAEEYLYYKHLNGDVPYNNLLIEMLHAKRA
# Format: functional, cell-based
# Conditions: not given
row,SMILES,IC50
1,COc1ccc(C2(C)NC(=O)N(CC(=O)Nc3ccc(C)cc3Br)C2=O)cc1OC (centres undefined),35.9 µM (inactive)
2,COCCn1c(C)cc(/C=C(\C#N)C(=O)OCC(=O)Nc2ccc(S(N)(=O)=O)cc2)c1C,35.9 µM (inactive)
3,COc1ccc(S(=O)(=O)N2CCN(CC(=O)Nc3ccc(C)c(F)c3)CC2)cc1,6.16 µM (active)
4,COC(=O)c1ccc(NC(=O)CSc2nncn2-c2cccnc2)cc1,35.9 µM (inactive)
5,CCOc1ccc(NC(=O)CSc2nnc(C(C)C)n2CC)cc1,35.9 µM (inactive)
6,CC(O)(c1cccc(F)c1)c1nc(-c2ccc(S(C)(=O)=O)cc2)cs1 (centres undefined),10.3 µM (inactive)
7,N#Cc1cc([N+](=O)[O-])ccc1NC(=O)COC(=O)C1CCC(=O)N1 (centres undefined),6.37 µM (active)
